Structures can show the parent of a compound that is named as a salt. Where two headings read alike, the source gives them in different places.
Legend:
[1] = test system: p75^NTR; assay: p75NTR protein levels in serum deprived PC12 cells (immunoblotting); format: cell-based; settings: serum deprived PC12, between 24 and 48 h; 100 nM DHEA, 100 ng/ml NGF; n = 5, p<0.01
Description: (§1) PC12 or HEK293 cells lysates were electrophoresed through a 12% SDS-polyacrylamide gel, and then proteins were transferred to nitrocellulose membranes, which were processed according to standard Western blotting procedures, as previously described. To detect protein levels, membranes were incubated with the appropriate antibodies: Bcl-2 (dilution 1∶500), phospho TrkA (dilution 1∶500), total TrkA (dilution1∶500), p75^NTR (dilution 1∶500), phospho Shc (dilution 1∶1000), total Shc (dilution 1∶1000), phospho Akt (dilution 1∶500), total Akt (dilution 1∶500), phospho ERK1/2 (dilution 1∶500), and total ERK1/2 (dilution 1∶500). Proteins were visualized using the ECL Western blotting kit (ECL Amersham Biosciences, UK), and blots were exposed to Kodak X-Omat AR films. A PC-based Image Analysis program was used to quantify the intensity of each band (Image Analysis, Inc., Ontario, Canada).
(§2) To normalize for protein content the blots were stripped and stained with GAPDH antibody (dilution 1∶1000); the concentration of each target protein was normalized versus GAPDH. Where phosphorylation of TrkA or kinases was measured, membranes were first probed for the phosphorylated form of the protein, then stripped, and probed for the total protein.

[2] = target: T1, p75^NTR (Rattus norvegicus, UniProt P07174); assay: [125I]-NGF displacement, HEK293^p75NTR cell membranes; format: binding; settings: unpublished data
T1 construct: expressed in transfected cells; host or cells: HEK293
T1 sequence (P07174 30-425): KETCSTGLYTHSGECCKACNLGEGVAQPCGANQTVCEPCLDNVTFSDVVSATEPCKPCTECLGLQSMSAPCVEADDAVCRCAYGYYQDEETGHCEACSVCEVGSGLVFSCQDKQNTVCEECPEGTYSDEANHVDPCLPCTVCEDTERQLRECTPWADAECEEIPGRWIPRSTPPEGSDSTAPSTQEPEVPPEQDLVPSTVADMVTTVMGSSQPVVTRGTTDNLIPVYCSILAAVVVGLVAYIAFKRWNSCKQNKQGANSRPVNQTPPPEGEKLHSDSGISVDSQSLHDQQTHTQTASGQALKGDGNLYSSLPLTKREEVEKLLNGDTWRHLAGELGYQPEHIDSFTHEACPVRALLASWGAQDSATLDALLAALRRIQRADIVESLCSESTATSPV

[3] = test system: Shc, ERK1/2, and Akt kinases; assay: Phosphorylation of Shc, ERK1/2 and Akt kinases in PC12 cells (Western blot); format: cell-based; settings: serum deprived naive PC12 cells, 10 min; 100 nM DHEA, 100 ng/ml NGF
Description: as §1, §2

[4] = target: T2, TrkA (Rattus norvegicus, UniProt P35739); assay: TrkA phosphorylation in HEK293^TrkA transfectants (anti-tyrosine IP, Western blot); format: cell-based; set-up: expressed in transfected cells; host or cells: HEK293; settings: 10 min (and 20 min), steroids 100 nM, NGF 100 ng/ml
T2 sequence (P35739 33-799): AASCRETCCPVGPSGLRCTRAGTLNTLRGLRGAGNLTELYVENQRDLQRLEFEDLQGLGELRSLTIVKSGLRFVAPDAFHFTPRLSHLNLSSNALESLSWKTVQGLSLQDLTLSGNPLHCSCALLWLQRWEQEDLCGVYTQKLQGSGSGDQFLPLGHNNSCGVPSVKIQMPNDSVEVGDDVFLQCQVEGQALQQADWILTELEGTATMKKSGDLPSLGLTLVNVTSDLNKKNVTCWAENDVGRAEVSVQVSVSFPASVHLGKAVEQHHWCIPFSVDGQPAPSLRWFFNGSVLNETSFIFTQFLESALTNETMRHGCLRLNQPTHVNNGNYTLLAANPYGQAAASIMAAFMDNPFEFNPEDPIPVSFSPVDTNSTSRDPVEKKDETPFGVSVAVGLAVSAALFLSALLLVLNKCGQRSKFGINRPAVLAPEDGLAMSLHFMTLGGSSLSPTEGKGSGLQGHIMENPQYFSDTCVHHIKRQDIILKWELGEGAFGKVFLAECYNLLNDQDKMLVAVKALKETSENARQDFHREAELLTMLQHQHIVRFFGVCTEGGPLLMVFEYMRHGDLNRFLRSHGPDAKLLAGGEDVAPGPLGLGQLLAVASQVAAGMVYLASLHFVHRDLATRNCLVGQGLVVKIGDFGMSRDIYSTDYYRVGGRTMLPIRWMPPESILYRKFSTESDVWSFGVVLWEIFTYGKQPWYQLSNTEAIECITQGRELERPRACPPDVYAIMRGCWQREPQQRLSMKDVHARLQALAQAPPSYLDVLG
Description: (§3) HEK293 cells were transfected with the appropriate plasmids (TrkA, p75^NTR, RIP2, TRAF-6, and RhoGDI) by using Lipofectamine 2000 (Invitrogen). Cells were harvested 48 h after transfection and suspended in lysis buffer (50 mM Tris-HCl, 0.15 M NaCl, 1% Triton-X100, pH 7.4) supplemented with protease inhibitors. Lysates were precleared for 1 h with Protein A-Sepharose beads (Amersham) and immunoprecipitated with the appropriate antibody (pTyr, Flag, or c-myc) overnight at 4°C. Protein A Sepharose beads were incubated with the lysates for 4 h at 4°C with gentle shaking. […] Beads were collected by centrifugation, washed four times with lysis buffer, and resuspended in SDS loading buffer. Proteins were separated by SDS/PAGE, followed by immunoblotting with specific antibodies.
as §1, §2

[5] = test system: TrkA positive sensory neurons of dorsal root ganglia; assay: Apoptotic loss of sensory neurons in dorsal root ganglia of NGF null mouse embryos; settings: ngf−/− embryos at E14, mothers treated daily with DHEA 2 mg
Description: ngf+/− mice [13] were obtained from the Jackson Laboratory and maintained on C57BL/6 background. […] Animals were housed in cages maintained under a constant 12 h light–dark cycle at 21–23°C, with free access to food and tap water.
Mice heterozygous for the NGF null mutation were interbred to obtain mice homozygous for the NGF gene disruption and the first day of gestation determined by the discovery of a copulation plug. The mothers were treated daily with a subcutaneous injection of DHEA (2 mg/day) or vehicle (4.5% ethanol in 0.9% saline) starting from the third day after gestation. Animals were collected at E14. At the day of collection the mothers were deeply anesthetized with sodium pentobarbital (Dolethal 0.7 ml/kg i.p.) followed by transcardial perfusion with saline solution containing heparin for about 7 min, and with 4% PFA, 15% Picric Acid, 0.05% GA in phosphate buffer 0.1 M, for another 7 min. After the perfusion the embryos were collected and maintained in the same fixative overnight at 4°C. Embryos were then washed in 0.1 M phosphate buffer and cryoprotected by using 10% sucrose followed by 20% sucrose overnight at 4°C. Finally, embryos were frozen in OCT in iso-pentane over liquid nitrogen for 5 min and the frozen tissues were stored for later use at −80°C. The samples were sectioned (20 µm) and mounted onto Superfrost plus slides (Menzel-Glaser J1800AMNZ). Slides were left to air-dry overnight at room temperature (RT) and were then either used immediately or were fixed in cold acetone for 1 min and stored at −80°C for later use.
Stored or fresh slides were fixed for 15 min in cold acetone at 4°C and left to dry for 10 min at room temperature. They were then washed in PB 0.1 M, then in TBS, and incubated for 45 min with 10% horse serum in TBS-T 0.1%. […] Sections were incubated for 4 h at RT and overnight at 4°C; they were then washed in TBS-T 0.1% and the anti-rabbit secondary antibodies (Alexa Fluor 488 and Alexa Fluor 546, 1∶1000 in TBS-T 0.1%) were added for 6 h at RT. […]

[6] = target: T2, TrkA; assay: [3H]-DHEA saturation binding to membranes of HEK293 cells transfected with TrkA cDNA; set-up: expressed in transfected cells; host or cells: HEK293; settings: KD of [3H]-DHEA binding (Scatchard analysis), n = 3
[7] = target: T1, p75^NTR; assay: [3H]-DHEA saturation binding to membranes of HEK293 cells transfected with p75NTR cDNA; settings: KD of [3H]-DHEA binding (Scatchard analysis), n = 3
[8] = test system: PC12 cells; assay: Apoptosis of serum deprived PC12 cells, FACS Annexin V-FITC and PI; format: cell-based; settings: serum free, 100 nM, 24 h, n = 8; serum free control 53.5%±17.6%
Description: (§4) PC12 cells were cultured in 12-well plates, and 24 h later they were transfected with the si/shRNAs for TrkA and/or p75^NTR. […] Apoptosis was quantified 24 h later with annexin V-FITC and PI (BD Pharmingen) according to our protocol.

[9] = test system: sympathetic SCG neurons; assay: NGF deprivation-induced apoptosis of superior cervical ganglia sympathetic neurons, Annexin V; format: cell-based, rat; settings: 100 nM DHEA, medium lacking NGF with anti-NGF antiserum
Description: Cells were plated on collagen coated 24-well plates and cultured for 5 d prior to use.

[10] = test system: nnr5 cells; assay: Apoptosis of nnr5 cells (PC12 clone expressing only p75NTR); format: cell-based; settings: DHEA 100 nM, NGF 100 ng/ml
Description: PC12 cells were obtained from LGC Promochem (LGC Standards GmbH, Germany) and nnr5 cells from Dr. C.F. Ibáñez (Karolinska Institute). Both cell types were grown in RPMI 1640 containing 2 mM L-glutamine, 15 mM HEPES, 100 units/ml penicillin, 0.1 mg/ml streptomycin, and 10% horse serum, 5% fetal calf serum (both charcoal-stripped for removing endogenous steroids) at 5% CO2 and 37°C. HEK-293 cells were obtained from LGC Promochem. Cells were grown in DMEM medium containing 10% fetal bovine serum (charcoal-stripped for removing endogenous steroids), 100 units/ml penicillin, and 0.1 mg/ml streptomycin, at 5% CO2 and […]. HEK-293 and PC12 cells were transfected with Lipofectamine 2000 (InVitrogen) according to manufacturer's instructions. Transfected cells were typically used on the 2nd day after transfection.
as §4

[11] = target: T2, TrkA; assay: Tyr490 TrkA phosphorylation in naive PC12 cells (Western blot); format: cell-based; set-up: PC12 cells, endogenously expressing TrkA receptors; endogenous in cells; host or cells: PC12; settings: 10 min, DHEA 100 nM, NGF 100 ng/ml
Description: as §1, §2

[12] = test system: TrkA; assay: TrkA protein levels in serum deprived PC12 cells (immunoblotting); format: cell-based; settings: serum deprived PC12, 12 to 48 h; 100 nM DHEA, 100 ng/ml NGF; n = 5, p<0.01
Description: as §1, §2

[13] = test system: PC12 cell membranes; assay: [3H]-DHEA saturation binding to PC12 cell membranes; settings: membranes from PC12 cells transfected with siRNA against GAPDH; listed as [^3H]-DHEA; read-out: KD of [3H]-DHEA binding (Scatchard analysis)
[14] = target: T3, p75^NTR with effectors TRAF6, RIP2, RhoGDI (Rattus norvegicus, UniProt P07174); assay: Co-immunoprecipitation of p75NTR with effectors TRAF6, RIP2, RhoGDI in co-transfected HEK293 cells; format: cell-based; settings: co-transfected HEK293, 30 min; 100 nM DHEA, 100 ng/ml NGF
T3 construct: expressed in transfected cells; host or cells: HEK293
T3 sequence (P07174 30-425): T1 sequence (P07174 30-425)
Description: as §3

[15] = target: T2, TrkA; assay: [125I]-NGF displacement, HEK293^TrkA cell membranes; format: binding; set-up: expressed in transfected cells; host or cells: HEK293; settings: unpublished data
[16] = target: T1, p75^NTR; assay: Heterologous [3H]-DHEA displacement, HEK293^p75NTR cell membranes; format: binding; settings: for displacement of [3H]-DHEA binding (in words): competitor up to 1000 nM
[17] = target: T2, TrkA; assay: Heterologous [3H]-DHEA displacement, HEK293^TrkA cell membranes; format: binding; set-up: expressed in transfected cells; host or cells: HEK293
[18] = target: TrkA receptor; settings: extracellular and cytoplasmic juxtamembrane domains of TrkA; read-out: Kd of binding to TrkA receptor; cited from earlier work
[19] = target: p75NTR (Homo sapiens) (UniProt P08138); settings: cited from earlier work
Chain of p75NTR (Homo sapiens) (P08138 29-250): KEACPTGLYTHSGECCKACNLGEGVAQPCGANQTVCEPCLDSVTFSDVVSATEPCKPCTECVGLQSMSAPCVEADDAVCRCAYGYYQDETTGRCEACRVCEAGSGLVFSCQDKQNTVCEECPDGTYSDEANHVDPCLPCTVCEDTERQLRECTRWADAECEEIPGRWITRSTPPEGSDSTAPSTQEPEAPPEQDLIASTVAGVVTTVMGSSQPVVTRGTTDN

[20] = target: T4, rat p75^NTR receptor expressed in HEK293 cells (HEK293^p75NTR) (rat, UniProt P07174 30-425); assay: radioligand binding; heterologous displacement of 1 nM [3H]-DHEA (a steroid) by unlabeled NGF (10^-12-10^-6 M) on membranes (2 mg/ml) of HEK293^TrkA and HEK293^p75NTR cells, PBS pH 7.4 with protease inhibitors, collected on GF/B filters; settings: one partner purified
T4 construct: also called p75 neurotrophin receptor; source: HEK293, transfected (Lipofectamine 2000); crude membranes, whole cells and lysate
T4 sequence (looked up): T1 sequence (P07174 30-425)

[21] = target: T5, rat TrkA receptor expressed in HEK293 cells (HEK293^TrkA) (rat, UniProt P35739 33-799); assay: as above; settings: one partner purified
T5 construct: TrkA (NGF receptor tyrosine kinase), rat, expressed from the pHA vector backbone; source: HEK293, transfected (Lipofectamine 2000); crude membranes and whole cells
T5 sequence (P35739 33-799): as the sequence (P35739 33-799) above

[22] = target: T4, rat p75^NTR receptor expressed in …; assay: radioligand binding; homologous [125I]-NGF displacement with unlabeled NGF on membranes isolated from HEK293^TrkA and HEK293^p75NTR transfectants; settings: one partner purified
[23] = target: T5, rat TrkA receptor expressed in HEK293 …; assay: as above; settings: one partner purified

C[C@]12CC[C@H](O)CC1=CC[C@@H]1[C@@H]2CC[C@]2(C)C(=O)CC[C@@H]12 [DHEA, dehydroepiandrosterone]
p75NTR receptor levels [1]: significantly decreased
displacement of [125I]-NGF binding (in words) [2]: unable to effectively displace
phosphorylation of Shc, ERK1/2, and Akt kinases [3]: strongly increased
phosphorylation of TrkA [4]: strongly increased
Fluoro Jade C and Caspase 3 positive neurons in the DRG [5]: significantly reduced
TUNEL-positive apoptotic neurons in the DRG [5]: decreased to levels shown in ngf+/− embryos
TrkA positive staining in the DRG [5]: significant increase
Kd ([6]; 25°C for 30 min): 7.4 ± 1.75 nM
Kd ([6]; overnight incubation at 4°C): 7.8 ± 3.1 nM
Kd ([7]; 25°C for 30 min): 5.6 ± 0.55 nM
Kd ([7]; overnight incubation at 4°C): 5.9 ± 1.7 nM
increase of apoptosis (% of difference from serum supplemented cells) [8]: 6%±1.4%
effect on apoptotic sympathetic neurons after NGF withdrawal [9]: effectively compensated for NGF by decreasing the levels of apoptotic neurons
effect on apoptosis of nnr5 cells [10]: induced apoptosis
phosphorylation of TrkA (Tyr490) [11]: strongly induced
TrkA receptor levels [12]: significantly increased
Kd [13]: 1.07 ± 0.43 nM
association of p75NTR with effectors TRAF6 and RIP2 [14]: efficiently induced the association
dissociation of RhoGDI from p75NTR receptors [14]: facilitating the dissociation
displacement of [125I]-NGF binding (in words) [15]: unable to effectively displace

C[C@]12CC[C@H](OS(=O)(=O)O)CC1=CC[C@@H]1[C@@H]2CC[C@]2(C)C(=O)CC[C@@H]12 [DHEAS, dehydroepiandrosterone sulfate]
phosphorylation of TrkA [4]: rapidly induced
IC50 ([16]; HEK293^p75NTR membranes, 1 nM [3H]-DHEA, read-out: IC50 of [3H]-DHEA displacement): 8.1 ± 1.2 nM
IC50 ([17]; HEK293^TrkA membranes, 1 nM [3H]-DHEA, read-out: IC50 of [3H]-DHEA displacement): 6.1 ± 1.1 nM

C[C@]12CC[C@@H]3c4ccc(O)cc4CC[C@H]3[C@@H]1CC[C@@H]2O [Estradiol]
displacement of [3H]-DHEA binding (in words) ([16]; HEK293^p75NTR membranes): failed to displace
displacement of [3H]-DHEA binding (in words) ([17]; HEK293^TrkA membranes, competitor 0.1 to 1000 nM): failed to displace

CN(C)CCC=C1c2ccccc2CCc2ccccc21 [amitriptyline]
Kd [18]: 3000 nM

C[C@@H]1C[C@H]2[C@@H]3CCC4=CC(=O)C=C[C@]4(C)[C@@]3(F)[C@@H](O)C[C@]2(C)[C@@]1(O)C(=O)CO [dexamethasone]
displacement of [3H]-DHEA binding (in words) ([16]; HEK293^p75NTR membranes): ineffective

CC(C)=CCC[C@]1(C)C=Cc2c(O)c3c(c(CC=C(C)C)c2O1)O[C@]12C(=C[C@@H]4CC1C(C)(C)O[C@@]2(C/C=C(/C)C(N)=O)C4=O)C3=O [gambogic amide]
Kd [18]: 75 nM

C[C@]12CC[C@H]3[C@@H](CCC4=CC(=O)CC[C@@]43C)[C@@H]1CC[C@@H]2O [testosterone]
phosphorylation of TrkA [4]: unable to increase
IC50 [16]: 7.4 ± 3.2 nM
IC50 [17]: 5.3 ± 2.1 nM

NGF (from UniProt P01138)
Kd [19]: 1 nM

B1: nerve growth factor (NGF), unlabeled (ligand, UniProt P01139 122-241, looked up)
chain: SSTHPVFHMGEFSVCDSVSVWVGDKTTATDIKGKEVTVLAEVNINNSVFRQYFFETKCRASNPVESGCRGIDSKHWNSYCTTTHTFVKALTTDEKQAAWRFIRIDTACVCVLSRKATRRG
notes: nerve growth factor (NGF); The species of the NGF is told nowhere; also called unlabeled NGF
IC50 [20]: 1.19 ± 0.45 nM
IC50 [21]: 0.8 ± 0.2 nM
IC50 [22]: 1.7 ± 0.38 nM
IC50 [23]: 0.3 ± 0.09 nM
